Active and inactive are the calls of the source. How the calls were made is not given here.
How the values were obtained:
[1] = TRAIL sensitizers in caspase-8 expressing neuroblastoma cells, dose response, NB7 cells plus caspase-8, luminescence, panel (AID 652002); details: NB7 neuroblastoma +caspase-8, no TRAIL, compound-alone cytotoxicity counter-screen, luminescence viability, NB7+Caspase-8
NB7+Caspase-8 = assay: as above; details: NB7 neuroblastoma +caspase-8, TRAIL sensitization, luminescence viability, with TRAIL
[2] = target: Tumor necrosis factor receptor superfamily member 10B (Homo sapiens) (UniProt O14763); assay: as above; details: NB7 neuroblastoma +caspase-8, TRAIL sensitization, luminescence viability; NB7+Caspase-8; with TRAIL, mean of runs
[3] = run 1, single replicate panel EC50
[4] = run 2, single replicate panel EC50

Sequence of Tumor necrosis factor receptor superfamily member 10B (Homo sapiens) (O14763 whole entry, looked up): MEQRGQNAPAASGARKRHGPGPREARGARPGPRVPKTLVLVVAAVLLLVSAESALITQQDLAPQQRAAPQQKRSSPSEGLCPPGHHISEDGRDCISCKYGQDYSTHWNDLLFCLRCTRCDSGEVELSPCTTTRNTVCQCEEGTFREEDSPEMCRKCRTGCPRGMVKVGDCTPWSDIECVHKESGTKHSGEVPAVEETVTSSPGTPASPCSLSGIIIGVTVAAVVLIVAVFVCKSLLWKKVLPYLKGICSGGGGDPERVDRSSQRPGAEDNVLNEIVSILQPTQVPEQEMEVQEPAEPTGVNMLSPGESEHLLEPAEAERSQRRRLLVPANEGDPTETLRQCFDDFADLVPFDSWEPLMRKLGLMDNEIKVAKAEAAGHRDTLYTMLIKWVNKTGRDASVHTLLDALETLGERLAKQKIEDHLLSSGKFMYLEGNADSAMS

NNC(=O)C1CCCn2c1nc1sc3c(c1c2=O)CCCC3 (stereo not given)
EC50 ([1]; mean of runs): > 12.5 µM (inactive)
EC50 [1, 3]: > 12.5 µM
EC50 [1, 4]: > 12.5 µM
EC50 (NB7+Caspase-8; [3]): > 12.5 µM
EC50 (NB7+Caspase-8; [4]): > 12.5 µM
EC50 [2]: > 12.5 µM (inactive)

Clc1nc(Cl)c2ncn(-c3ccccc3)c2n1
EC50 ([1]; mean of runs): > 12.5 µM (inactive)
EC50 [1, 3]: > 12.5 µM
EC50 [1, 4]: > 12.5 µM
EC50 (NB7+Caspase-8; [3]): > 12.5 µM
EC50 (NB7+Caspase-8; [4]): > 12.5 µM
EC50 [2]: > 12.5 µM (inactive)

O=C1c2ccc(Cl)cc2S(=O)(=O)c2cccc(C(=O)N3CCC(Cc4ccccc4)CC3)c21
EC50 ([1]; mean of runs): > 12.5 µM (inactive)
EC50 [1, 3]: > 12.5 µM
EC50 [1, 4]: > 12.5 µM
EC50 (NB7+Caspase-8; [3]): > 12.5 µM
EC50 (NB7+Caspase-8; [4]): > 12.5 µM
EC50 [2]: > 12.5 µM (inactive)

CCCCC1CCC(C(=O)N(CCC(C)C)c2c(N)n(CCCC)c(=O)[nH]c2=O)CC1 (stereo not given)
EC50 ([1]; mean of runs): > 12.5 µM (inactive)
EC50 [1, 3]: > 12.5 µM
EC50 [1, 4]: > 12.5 µM
EC50 (NB7+Caspase-8; [3]): > 12.5 µM
EC50 (NB7+Caspase-8; [4]): > 12.5 µM
EC50 [2]: > 12.5 µM (inactive)

CCOc1ccc(-c2cc(C(=O)N3CCC(C)CC3)c3ccccc3n2)cc1
EC50 ([1]; mean of runs): > 12.5 µM (inactive)
EC50 [1, 3]: > 12.5 µM
EC50 [1, 4]: > 12.5 µM
EC50 (NB7+Caspase-8; [3]): > 12.5 µM
EC50 (NB7+Caspase-8; [4]): 11.5 µM
EC50 [2]: inactive

COc1ccc(-c2nnc(SCC(=O)c3[nH]c(C)c(C(C)=O)c3C)o2)cc1
EC50 ([1]; mean of runs): > 12.5 µM (inactive)
EC50 [1, 3]: > 12.5 µM
EC50 [1, 4]: > 12.5 µM
EC50 (NB7+Caspase-8; [3]): > 12.5 µM
EC50 (NB7+Caspase-8; [4]): > 12.5 µM
EC50 [2]: > 12.5 µM (inactive)

COc1ccc(-c2cc(C(=O)OCC(=O)Nc3ccc4c(c3)OCO4)c3ccccc3n2)cc1
EC50 ([1]; mean of runs): inactive
EC50 [1, 3]: 6.39 µM
EC50 [1, 4]: 6.23 µM
EC50 (NB7+Caspase-8; [3]): > 12.5 µM
EC50 (NB7+Caspase-8; [4]): 7.82 µM
EC50 [2]: inactive

O=c1[nH]c(N/N=C\c2ccc3c(c2)OCO3)nc2ccccc12
EC50 ([1]; mean of runs): inactive
EC50 [1, 3]: > 12.5 µM
EC50 [1, 4]: 10.9 µM
EC50 (NB7+Caspase-8; [3]): > 12.5 µM
EC50 (NB7+Caspase-8; [4]): 10.1 µM
EC50 [2]: inactive

Cc1c(P(=S)(c2ccccc2)c2ccccc2)[n+]2ccccc2n1CCc1ccccc1
EC50 ([1]; mean of runs): > 12.5 µM (inactive)
EC50 [1, 3]: > 12.5 µM
EC50 [1, 4]: > 12.5 µM
EC50 (NB7+Caspase-8; [3]): > 12.5 µM
EC50 (NB7+Caspase-8; [4]): > 12.5 µM
EC50 [2]: > 12.5 µM (inactive)

CCCCCCc1cc2cc(S(=O)(=O)c3ccc(F)c(Cl)c3)c(=O)oc2cc1O
EC50 ([1]; mean of runs): > 12.5 µM (inactive)
EC50 [1, 3]: > 12.5 µM
EC50 [1, 4]: > 12.5 µM
EC50 (NB7+Caspase-8; [3]): > 12.5 µM
EC50 (NB7+Caspase-8; [4]): > 12.5 µM
EC50 [2]: > 12.5 µM (inactive)
